# Measurements published in patent US7618990B2, “Oxazolidone derivatives as PR modulators” (Wyeth, priority 2006, dated 2009).
# Tests used:
# [1] = tested on: alkaline phosphatase activity in T47D cells; test: Effects of progestins and antiprogestins on alkaline phosphatase activity in T47D cells (antagonist mode); format: cell-based; details: Homo sapiens, in the presence of 1 nM progesterone, read-out: T47D Alkaline Phosphatase Activity IC50 (nM) or % inhibition; for IC50: 24 h
# [2] = molecular target: T1, progesterone receptor (PR) (Homo sapiens, UniProt P06401); test: Progesterone receptor whole cell competition binding assay using T47D cells; details: intact T47D cells, 3 nM 3H-progesterone, 3 h at 37° C.
# T1 construct: in live, intact (whole) cells using the human breast carcinoma T47D cell line; endogenous in cells; host or cells: T47D human breast carcinoma cells
# T1 sequence (P06401 1-933): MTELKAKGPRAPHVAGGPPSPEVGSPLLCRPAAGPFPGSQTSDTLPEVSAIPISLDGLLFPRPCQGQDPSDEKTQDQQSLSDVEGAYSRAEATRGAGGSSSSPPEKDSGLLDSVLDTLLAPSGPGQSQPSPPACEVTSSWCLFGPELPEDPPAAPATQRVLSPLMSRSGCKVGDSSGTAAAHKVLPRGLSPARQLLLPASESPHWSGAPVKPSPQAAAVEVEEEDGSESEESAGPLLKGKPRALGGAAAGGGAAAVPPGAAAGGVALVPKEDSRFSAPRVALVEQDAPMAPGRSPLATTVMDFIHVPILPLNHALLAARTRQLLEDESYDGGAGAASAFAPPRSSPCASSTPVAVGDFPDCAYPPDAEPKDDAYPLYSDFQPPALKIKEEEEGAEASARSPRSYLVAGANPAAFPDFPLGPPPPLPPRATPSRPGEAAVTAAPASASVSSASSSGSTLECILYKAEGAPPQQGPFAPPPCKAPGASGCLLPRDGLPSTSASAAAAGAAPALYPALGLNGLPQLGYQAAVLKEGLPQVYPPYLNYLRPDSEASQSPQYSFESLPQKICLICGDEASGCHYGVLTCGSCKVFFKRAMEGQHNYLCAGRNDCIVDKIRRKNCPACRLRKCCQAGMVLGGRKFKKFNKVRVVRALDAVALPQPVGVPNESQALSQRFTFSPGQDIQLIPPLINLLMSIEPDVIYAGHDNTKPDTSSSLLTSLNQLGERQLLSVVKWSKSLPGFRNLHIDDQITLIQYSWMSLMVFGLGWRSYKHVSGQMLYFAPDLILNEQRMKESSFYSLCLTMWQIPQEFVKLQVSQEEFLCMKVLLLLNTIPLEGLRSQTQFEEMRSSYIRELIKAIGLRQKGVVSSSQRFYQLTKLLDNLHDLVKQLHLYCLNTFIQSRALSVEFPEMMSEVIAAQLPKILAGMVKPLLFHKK
# Method: (2) Progesterone Receptor Whole Cell Competition Binding Assay Using T47D Cells
# PURPOSE: To evaluate the progesterone receptor (PR) binding activity of progestins or antiprogestins in live, intact (whole) cells using the human breast carcinoma T47D cell line and ^3H-progesterone as the labeled ligand.
# Culture Medium: • 5% RC: phenol red free DMEM:F12 (1:1) (GIBCO, BRL) supplemented with 5% (v/v) charcoal stripped fetal bovine serum (not heat-inactivated), 100 U/mL penicillin, 100 μg/mL streptomycin, and 2 mM the GlutaMax™ reagent (GIBCO, BRL). • 10% RC: Same as above supplemented with 10% (v/v) FBS. • ^3H-Progesterone: Perkin Elmer Life Science, cat# NET-381 (typically around 102 Ci/mmol)
# T47D cells were maintained in 10% RC media at 37° C. in a 5% CO2/humidified atmosphere and were split twice weekly for proper response. Cells were plated in 10% RC the day before binding assay at 50,000 cells per well in the white, clear bottom plates purchased through VWR or Perkin Elmer.
# Cells plated the day prior to the assay in white clear bottom plates were used. A master compound plate was set up containing control and test compounds at 20× final desired concentration for the competition binding. A typical dose range of 20× concentrations were (in nM); 200,000; 20,000; 6000; 2000; 600; 200; 20; and 2. Final concentrations were (in nM); 10,000; 1000; 300; 100; 30; 10; 1; 0.1. Control compounds were typically run 10-fold lower than this and include a 0, or vehicle, control well. A stock of 60 nM ^3H-progesterone (20×) were also prepared at a volume needed of 10 μL per well.
# Media on cells were replaced with 180 μL of 5% RC. Ten microliters (10 μL) of 60 nM ^3H-progesterone (for final concentration of 3 nM) was added immediately, followed by 10 μL of 20× test or control compounds. Compounds were incubated for 3 h at 37° C. (A time course study found no difference between 2 and 4 h incubation.)
# Following incubation, media was carefully removed and cells were washed 3× with 200 μL 5% RC each wash. Fifty microliters of liquid scintillation cocktail was added and the plates were shaken vigorously for a minimum of 15 min. Plates were read on the Wallac Microbeta® 1450 plate reader.
# Square root-transformed data were used for analysis of variance and calculation of IC50. SAS software (SAS Institute, Inc.) was used for all the statistical analysis.
# Progesterone was used as a reference progestin and RU486 as a reference antiprogestin.
Compound,IC50 [1] [nM],Ki [2] [nM],melting point [°C],inhibition at 3 µM ([1]; % inhibition at 3000 nM) [%]
"C[C@@H]1COC(=O)N1c1nc(-c2ccc(Br)cc2)cs1 [Example 1, (4R)-3-[4-(4-Bromophenyl)-1,3-thiazol-2-yl]-4-methyl-1,3-oxazolidin-2-one]",22.1,87.6,197 to 199,–
"C[C@@H]1COC(=O)N1c1nc(-c2ccc(C#N)cc2)cs1 [Example 2, 4-{2-[(4R)-4-Methyl-2-oxo-1,3-oxazolidin-3-yl]-1,3-thiazol-4-yl}benzonitrile]",14.6,43.4,227 to 228,–
"C[C@H]1COC(=O)N1c1nc(-c2ccc(Br)cc2)cs1 [Example 3, (4S)-3-[4-(4-Bromophenyl)-1,3-thiazol-2-yl]-4-methyl-1,3-oxazolidin-2-one]",24.6,55.3,196 to 198,–
"C[C@H]1COC(=O)N1c1nc(-c2ccc(C#N)cc2)cs1 [Example 4, 4-{2-[(4S)-4-Methyl-2-oxo-1,3-oxazolidin-3-yl]-1,3-thiazol-4-yl}benzonitrile]",15.8,62.8,205 to 207,–
"CC1(C)COC(=O)N1c1nc(-c2ccc(Br)cc2)cs1 [Example 5, 3-[4-(4-Bromophenyl)-1,3-thiazol-2-yl]-4,4-dimethyl-1,3-oxazolidin-2-one]",6.4,38.2,165 to 167,–
"CC[C@H]1COC(=O)N1c1nc(-c2ccc(Br)cc2)cs1 [Example 7, (4S)-3-[4-(4-Bromophenyl)-1,3-thiazol-2-yl]-4-ethyl-1,3-oxazolidin-2-one]",23,75.3,138 to 140,–
"CC[C@H]1COC(=O)N1c1nc(-c2ccc(C#N)cc2)cs1 [Example 8, 4-{2-[(4S)-4-Ethyl-2-oxo-1,3-oxazolidin-3-yl]-1,3-thiazol-4-yl}benzonitrile]",14.6,52.6,173 to 175,–
"CC[C@@H]1COC(=O)N1c1nc(-c2ccc(Br)cc2)cs1 [Example 9, (4R)-3-[4-(4-Bromophenyl)-1,3-thiazol-2-yl]-4-ethyl-1,3-oxazolidin-2-one]",32.9,62.1,134 to 135,–
"CC[C@@H]1COC(=O)N1c1nc(-c2ccc(C#N)cc2)cs1 [Example 10, 4-{2-[(4R)-4-Ethyl-2-oxo-1,3-oxazolidin-3-yl]-1,3-thiazol-4-yl}benzonitrile]",12.8,23.3,153 to 157,–
"CCC[C@H]1COC(=O)N1c1nc(-c2ccc(C#N)cc2)cs1 [Example 23, 4-{2-[(4S)-2-oxo-4-propyl-1,3-oxazolidin-3-yl]-1,3-thiazol-4-yl}benzonitrile]",28.1,41.2,132 to 135,–
"O=C1OCC2(CCC2)N1c1nc(-c2ccc(Br)cc2)cs1 [Example 26, 5-[4-(4-Bromophenyl)-1,3-thiazol-2-yl]-7-oxa-5-azaspiro[3.4]octan-6-one]",49.4,91.8,–,–
"O=C1OCC2(CCCC2)N1c1nc(-c2ccc(Br)cc2)cs1 [Example 34, 1-[4-(4-Bromophenyl)-1,3-thiazol-2-yl]-3-oxa-1-azaspiro[4.4]nonan-2-one]",95.3,529,138 to 139,–
"O=C1OC[C@@H](c2ccccc2)N1c1nc(-c2ccc(Br)cc2)cs1 [Example 35, (4R)-3-[4-(4-Bromophenyl)-1,3-thiazol-2-yl]-4-phenyl-1,3-oxazolidin-2-one]",204,713,218 to 220,–
"O=C1OCC(CC(F)(F)F)N1c1nc(-c2ccc(Br)cc2)cs1 (stereo not drawn) [Example 67, 3-[4-(4-Bromophenyl)-1,3-thiazol-2-yl]-4-(2,2,2-trifluoroethyl)-1,3-oxazolidin-2-one]",95.5,–,163 to 165,–
"N#Cc1ccc(-c2csc(N3C(=O)OC[C@@H]3CC(F)(F)F)n2)cc1 [Example 68, 4-{2-[(4S)-2-Oxo-4-(2,2,2-trifluoroethyl)-1,3-oxazolidin-3-yl]-1,3-thiazol-4-yl}benzonitrile]",29.1,–,235 to 238,–
"N#Cc1ccc(-c2csc(N3C(=O)OC[C@H]3CC(F)(F)F)n2)cc1 [Example 69, 4-{2-[(4R)-2-Oxo-4-(2,2,2-trifluoroethyl)-1,3-oxazolidin-3-yl]-1,3-thiazol-4-yl}benzonitrile]",63.8,–,235 to 238,–
"COC(=O)[C@@H]1COC(=O)N1c1nc(-c2ccc(Br)cc2)cs1 [Example 70, Methyl (4S)-3-[4-(4-bromophenyl)-1,3-thiazol-2-yl]-2-oxo-1,3-oxazolidine-4-carboxylate]",–,–,165 to 167,90
"O=C1OC[C@@H](CO)N1c1nc(-c2ccc(Br)cc2)cs1 [Example 71, (4R)-3-[4-(4-Bromophenyl)-1,3-thiazol-2-yl]-4-(hydroxymethyl)-1,3-oxazolidin-2-one]",565,–,189 to 192,–
"O=C1OC[C@@H](CCl)N1c1nc(-c2ccc(Br)cc2)cs1 [Example 72, (4S)-3-[4-(4-Bromophenyl)-1,3-thiazol-2-yl]-4-(chloromethyl)-1,3-oxazolidin-2-one]",5.4,20,–,–
"CC1(C)OCC(=O)N1c1nc(-c2ccc(Br)cc2)cs1 [Example 77, 3-[4-(4-Bromophenyl)-1,3-thiazol-2-yl]-2,2-dimethyl-1,3-oxazolidin-4-one]",372,584,–,–
"CC1(C)COC(=O)N1c1nc(-c2ccc(Br)cc2F)cs1 [Example 78, 3-[4-(4-Bromo-2-fluorophenyl)-1,3-thiazol-2-yl]-4,4-dimethyl-1,3-oxazolidin-2-one]",24.8,45.6,–,–
"CC1(C)COC(=O)N1c1nc(-c2ccc(C#N)cc2F)cs1 [Example 79, 4-[2-(4,4-Dimethyl-2-oxo-1,3-oxazolidin-3-yl)-1,3-thiazol-4-yl]-3-fluorobenzonitrile]",31.6,170,–,–
"CC1(C)COC(=O)N1c1nc(-c2ccc([N+](=O)[O-])cc2)cs1 [Example 80, 4,4-Dimethyl-3-[4-(4-nitrophenyl)-1,3-thiazol-2-yl]-1,3-oxazolidin-2-one]",8.6,34.5,–,–
"CC1(C)COC(=O)N1c1nc(-c2ccc(C#N)c(F)c2)cs1 [Example 81, 4-[2-(4,4-Dimethyl-2-oxo-1,3-oxazolidin-3-yl)-1,3-thiazol-4-yl]-2-fluorobenzonitrile]",2.3,~2000,–,–
